Molecular target: T1, Adipose triglyceride lipase (ATGL) (Mus musculus, UniProt Q8BJ56)
T1 sequence (Q8BJ56 1-486): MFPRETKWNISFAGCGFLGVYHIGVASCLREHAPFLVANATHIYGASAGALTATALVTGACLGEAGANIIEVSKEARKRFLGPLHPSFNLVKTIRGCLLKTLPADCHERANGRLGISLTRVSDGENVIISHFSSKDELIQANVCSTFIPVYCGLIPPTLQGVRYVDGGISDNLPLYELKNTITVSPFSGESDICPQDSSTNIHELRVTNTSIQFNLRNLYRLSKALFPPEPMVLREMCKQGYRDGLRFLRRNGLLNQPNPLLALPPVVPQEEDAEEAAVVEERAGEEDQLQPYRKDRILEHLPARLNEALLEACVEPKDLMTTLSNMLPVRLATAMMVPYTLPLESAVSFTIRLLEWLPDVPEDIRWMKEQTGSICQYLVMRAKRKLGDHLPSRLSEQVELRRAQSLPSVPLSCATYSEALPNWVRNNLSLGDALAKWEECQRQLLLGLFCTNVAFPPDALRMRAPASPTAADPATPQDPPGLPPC
T1 sequence (Q9DBL9 1-351 partner): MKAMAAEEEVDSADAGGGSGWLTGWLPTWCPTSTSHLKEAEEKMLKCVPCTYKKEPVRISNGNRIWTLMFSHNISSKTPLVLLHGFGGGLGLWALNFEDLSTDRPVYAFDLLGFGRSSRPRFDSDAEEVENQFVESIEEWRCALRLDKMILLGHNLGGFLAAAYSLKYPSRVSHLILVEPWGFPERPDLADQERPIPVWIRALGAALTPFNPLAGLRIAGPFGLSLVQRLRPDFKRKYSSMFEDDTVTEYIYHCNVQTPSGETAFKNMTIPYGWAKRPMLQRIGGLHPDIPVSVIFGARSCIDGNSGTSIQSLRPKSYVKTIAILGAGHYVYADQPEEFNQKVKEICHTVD
Format: biochemical

For `CN(C)C(=O)Nc1cccc(-c2ccc(N(C)C)cc2)c1` [compound 4, Atglistatin], the Ki was 355 ± 48 nM.

Source: publication PMC3829776 (Nature chemical biology, 2013)
